Experimental data taken from PMC11993615, “Design, synthesis and optimization of TarO inhibitors as multifunctional antibiotics against Methicillin-resistant Staphylococcus aureus” (npj Antimicrobials and Resistance, 2025).

How the values were obtained:
TarO = TarO (Staphylococcus aureus, UniProt Q2G060); format: cell-based; conditions: for IC50: relative inhibition rate against the wild-type strain, OD600 at 20 h, n.a. = IC50 cannot be calculated within the test range; for TarO inhibitory activity (in words): SAR discussion
USA300 LAC = assay: Checkerboard MIC assay with oxacillin; format: cell-based, Staphylococcus aureus; conditions: for FICI / Sensitization fold / Minimum sensitization concentration: USA300 LAC/oxacillin; for Minimum sensitization concentration: test range 0.03–32 μg/mL
Procedure: (§1) In the checkerboard assay, concentrations of antibiotics, oxacillin and imipenem, and TarO inhibitors were simultaneously varied across columns and the rows, respectively. […] The range of each compound chosen for the checkerboard assay was according to their MIC value. […] For each clear well observed on the checkerboard MIC plate, the fractional inhibitory concentration index (FICI) was calculated as follows: FICI = FIC (inhibitor) + FIC (antibiotic) = MIC inhibitor in combination/ MIC inhibitor alone + MIC antibiotic in combination/MIC antibiotic alone. FIC = Fractional Inhibitory Concentration. A FICI value of < 0.5 indicates synergy, a value between 0.5 and 2 indicates additivity or indifference, and a value > 2 indicates antagonism.

USA400 MW2 = assay: Checkerboard MIC assay with oxacillin; format: cell-based, Staphylococcus aureus; conditions: oxacillin used alone, USA400 MW2
Procedure: as §1

HS663 = assay: Checkerboard MIC assay with imipenem; format: cell-based, Staphylococcus aureus; conditions: imipenem used alone, HS663
Procedure: as §1

[1] = at maximum sensitization concentration
[2] = at minimum sensitization concentration
[3] = Staphylococcus aureus, read-out: MIC of β-lactam, Individual

`C[C@H]1[C@@H](c2cc(C(F)(F)F)cc(C(F)(F)F)c2)OC(=O)N1C(=O)CCN1CCOc2ccccc21` [Compound 11] was tested, and the IC50 (TarO) was 1.99 µM, the FICI (USA300 LAC; [1]) was less than 0.07 and the Sensitization fold (USA300 LAC; [1]) was 16. For the same molecule, the Sensitization fold (USA300 LAC; [2]) was 4 and the Minimum sensitization concentration (USA300 LAC) was 0.03 µg/mL.
With `C[C@H]1[C@@H](c2cc(C(F)(F)F)cc(C(F)(F)F)c2)OC(=O)N1C(=O)CCN1CCS(=O)(=O)CC1` [Compound 19] the “TarO inhibitory activity (in words)” value (TarO) was “lost its activity”.
With `C[C@H]1[C@@H](c2cc(F)cc(C(F)(F)F)c2)OC(=O)N1C(=O)CCn1ccc(=O)c2ccccc21` [Compound 17c] the IC50 (TarO) was 27.8 µM.
With `C[C@H]1[C@@H](c2cc(C(F)(F)F)cc(C(F)(F)F)c2)OC(=O)N1C(=O)OCc1cccc2ccccc12` [Compound 1] the IC50 (TarO) was 0.161 µM, the FICI (USA300 LAC; [1]) was less than 0.07 and the Sensitization fold (USA300 LAC; [1]) was 16. The Sensitization fold (USA300 LAC; [2]) was 8 and the Minimum sensitization concentration (USA300 LAC) was 0.06 µg/mL.
`C[C@H]1[C@@H](c2cc(C(F)(F)F)cc(C(F)(F)F)c2)OC(=O)N1C(=O)CCN1CCS(=O)(=O)c2ccccc21` [Compound 9] was tested, and the “TarO inhibitory activity (in words)” value (TarO) was “potent inhibition activity comparable to Tarocin A” and the IC50 (TarO) was 6.32 µM.
`C[C@H]1[C@@H](c2cc(C(F)(F)F)cc(C(F)(F)F)c2)OC(=O)N1C(=O)CCc1cccc2c1OCCC2=O` [Compound 14] gave an IC50 (TarO) of 4.04 µM, an FICI (USA300 LAC; [1]) of less than 0.08 and a Sensitization fold (USA300 LAC; [1]) of 16. It also gave a Sensitization fold (USA300 LAC; [2]) of 8 and a Minimum sensitization concentration (USA300 LAC) of 0.25 µg/mL.
For `COc1cc(C(F)(F)F)cc([C@H]2OC(=O)N(C(=O)CCn3ccc(=O)c4ccccc43)[C@H]2C)n1` [Compound 17b], the IC50 (TarO) was 22.4 µM.
In the case of `C[C@H]1[C@@H](c2cc(C(F)(F)F)cc(C(F)(F)F)c2)OC(=O)N1C(=O)N1CC(c2cccc3ccccc23)C1` [Compound 6], the “TarO inhibitory activity (in words)” value (TarO) is reported as “loss of activity”.
`C[C@H]1[C@@H](c2cc(C(F)(F)F)cc(C(F)(F)F)c2)OC(=O)N1C(=O)SCc1cccc2ccccc12` [Compound 2] was tested, and the “TarO inhibitory activity (in words)” value (TarO) was “potent TarO inhibitory activity”, the IC50 (TarO) was 0.0974 µM and the FICI (USA300 LAC; [1]) was less than 0.04. It also gave a Sensitization fold (USA300 LAC; [1]) of 32, a Sensitization fold (USA300 LAC; [2]) of 8 and a Minimum sensitization concentration (USA300 LAC) of 0.06 µg/mL.
Work on `C[C@H]1[C@@H](c2cc(C(F)(F)F)cc(C(F)(F)F)c2)OC(=O)N1C(=S)NCc1cccc2ccccc12` [Compound 5] yielded an IC50 (TarO) of 8.98 µM, an FICI (USA300 LAC; [1]) of less than 0.13 and a Sensitization fold (USA300 LAC; [1]) of 8. For the same molecule, the Sensitization fold (USA300 LAC; [2]) was 8 and the Minimum sensitization concentration (USA300 LAC) was 0.25 µg/mL.
In the case of `Cc1onc(-c2ccccc2)c1C(=O)N[C@@H]1C(=O)N2[C@@H]1SC(C)(C)[C@@H]2C(=O)O` [oxacillin, reference compound], the MIC (USA400 MW2; [3]) is reported as 16 µg/mL, the “MIC of β-lactam, Individual” value (USA400 MW2) is reported as 16 µg/mL and the MIC (USA300 LAC; Staphylococcus aureus, oxacillin used alone, USA300 LAC, read-out: MIC of β-lactam, Individual) is reported as 64 µg/mL. The “MIC of β-lactam, Individual” value (USA300 LAC; oxacillin used alone, USA300 LAC) was 64 µg/mL.
For `C[C@H]1[C@@H](c2cc(C(F)(F)F)cc(C(F)(F)F)c2)OC(=O)N1C(=O)CCc1cccc2c1OCC/C2=N\O` [Compound 23], the IC50 (TarO) was 7.54 µM.
With `C[C@H]1[C@@H](c2cc(C(F)(F)F)cc(C(F)(F)F)c2)OC(=O)N1C(=O)CCN1CCC(=O)c2ccccc21` [Compound 12] the IC50 (TarO) was 5.05 µM.
In the case of `C[C@@H](O)[C@H]1C(=O)N2C(C(=O)O)=C(SCCN=CN)C[C@H]12` [imipenem, reference compound], the MIC (HS663; [3]) is reported as 64 µg/mL and the “MIC of β-lactam, Individual” value (HS663) is reported as 64 µg/mL.
For `C[C@H]1[C@@H](c2cccc(C(F)(F)F)c2)OC(=O)N1C(=O)NCc1cncc2ccccc12` [Tarocin A2, reference compound], the IC50 (TarO) was 24.2 µM.
For `C[C@H]1[C@@H](c2cc(C(F)(F)F)cc(C(F)(F)F)c2)OC(=O)N1C(=O)CNc1cccc2ccccc12` [Compound 7], the IC50 (TarO) was 7.19 µM.
tunicamycin [reference compound] was tested, and the “induction of vraXpro-lux expression” value (TarO; MRSA USA300 LAC strain, exponential growth phase) was “concentration-dependent manner” and the “bacterial growth density (OD600)” value (TarO; post-exponential growth phase) was “effectively reduced the bacterial growth density”.
In the case of `C[C@H]1[C@@H](c2cccc(C(F)(F)F)c2)OC(=O)N1C(=O)CCn1ccc(=O)c2ccccc21` [Compound 17d], the IC50 (TarO) is reported as 30.2 µM.
For `C[C@H]1[C@@H](c2cc(C(F)(F)F)cc(C(F)(F)F)c2)OC(=O)N1C(=O)CCC1CCCCC1` [Compound 8], the “TarO inhibitory activity (in words)” value (TarO) was “inactive”.
